Data taken from patent US12478628B2, “Germ cell nuclear factor ligands and methods of use thereof” (Saint Louis University, priority 2020, dated 2025).
Positions count from the first letter of the chain named.

Experiments:
GCNF LBD Y336F = biological target: T1, GCNF LBD Y336F (Homo sapiens, UniProt Q15406, Y336F); assay: DSF of GCNF LBD mutant Y336F; assay type: binding; conditions: 5 mM protein with 20 mM ligand as printed
T1 construct: Human GCNF (NR6A1) LBD (residues 248-480); hexahistidine tag with 3C protease site; made in house; host or cells: E. coli BL(21) DE3
T1 sequence (Q15406 248-480 Y336F): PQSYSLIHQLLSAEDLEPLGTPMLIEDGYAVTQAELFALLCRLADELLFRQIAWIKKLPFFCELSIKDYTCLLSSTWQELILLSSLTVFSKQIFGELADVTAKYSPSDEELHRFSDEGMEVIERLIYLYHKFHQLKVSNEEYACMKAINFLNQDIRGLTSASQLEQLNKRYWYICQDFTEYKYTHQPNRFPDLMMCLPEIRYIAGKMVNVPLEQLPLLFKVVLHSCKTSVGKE
Experimental: DSF Assay. GCNF LBD (5 μM) were mixed with 1× Sypro orange (Invitrogen) in DSF buffer (50 mM HEPES, 50 mM KCl, 5 mM TCEP, 0.5 mM EDTA, pH 7.5). […] Ten microliters (10 μL)×5 replicates for each sample were plated on 384-well PCR microplate. No protein control and no ligand references were also run simultaneously in 5 replicates on the same plate. A total of 450 compounds (Life Chemicals) previously selected from a nuclear-receptor-biased library targeting REV-ERB were analyzed. Thermal stability was assessed on a Quantstudio 6 instrument (Biosystems) by ramping the temperature from 25° C. to 95° C. at 0.05° C./s and protein melt shifts were subsequently quantified by Boltzmann-derived melting temperature (Tm) using the Protein Thermal Shift (ThermoFisher) software. Positive hits were identified when a thermal shift (ΔTm) of at least 2° C. was observed.

[1] = test system: BeWo human choriocarcinoma cells; assay: qPCR of GCNF target gene expression in BeWo cells; assay type: cell-based; conditions: 20 μM, 24 h
Experimental: BeWo cells were cultured in DMEM-F12 medium (Gibco) with 10% FBS (Gembio) and plated at 75,000 cells per well in 12-well plates (Corning). 24-hours after plating, cells were treated with either DMSO, ligand 34 or ligand 80 (20 μM) at 4 wells/group. RNA was isolated 24-hours after drug treatment and cDNA was synthesized for the QPCR assays using Bio-Rad iScript cDNA synthesis kit per manufacturer's protocol. Expression was analyzed by QPCR using a custom array plate (Bio-Rad PrimePCR) per manufacturer's protocol; n=4 was used for cell-based assays and plotted as mean±SEM.

GCNF LBD F361A = biological target: T2, GCNF LBD F361A (Homo sapiens, UniProt Q15406, F361A); assay: DSF of GCNF LBD mutant F361A; assay type: binding; conditions: 20 μM ligand
T2 construct: Human GCNF (NR6A1) LBD (residues 248-480) and mutants F284A/F361A; hexahistidine tag with 3C protease site; made in house; host or cells: E. coli BL(21) DE3
T2 sequence (Q15406 248-480 F361A): T1 sequence (Q15406 248-480 Y336F) with F89Y, F114A
Experimental: Protein Expression and Purification. Human GCNF (NR6A1) LBD (residues 248-480) and mutants F284A/F361A, human LRH-1 (NR5A2) LBD (residues 291-541), human RXRα LBD (residues 223-462), human COUP-TF I LBD (residues 184-410) and human SF-1 LBD (residues 219-461) were subcloned in pET45b(+) plasmid (Novagen) were expressed in E. coli BL(21) DE3 cells in terrific broth with 0.1 mg/mL ampicillin as 3C protease-cleavable hexahistidine-tagged fusion proteins. The bacterial culture was grown at 37° C. to an optical density of 0.8 to 1.0 at 600 nm. Protein expression was induced by adding 1 mM IPTG and was allowed to proceed for 14 h at 22° C. […]
DSF Assay. […] A total of 450 compounds (Life Chemicals) previously selected from a nuclear-receptor-biased library targeting REV-ERB were analyzed. Thermal stability was assessed on a Quantstudio 6 instrument (Biosystems) by ramping the temperature from 25° C. to 95° C. at 0.05° C./s and protein melt shifts were subsequently quantified by Boltzmann-derived melting temperature (Tm) using the Protein Thermal Shift (ThermoFisher) software. […]

effect of mutation F361A on ΔTm compared to WT (GCNF LBD F361A)	SMILES	effect of substitution Y336F on ligand binding (DSF) (GCNF LBD Y336F)	GCNF gene expression [1]	NR5A1 (SF-1) expression [1]	NR5A2 (LRH-1) expression [1]	Nanog expression [1]	Oct4 expression [1]	carnitine palmitoyltransferase 1a (CPT1a) expression [1]	diglyceride acyltransferase-1 (DGAT1) expression [1]	diglyceride acyltransferase-2 (DGAT2) expression [1]	fatty acid synthase (FASN) expression [1]	phosphoenolpyruvate carboxykinase (PEPCK) expression [1]
substantially decreased the ΔTm	Cc1ccc(-n2ncc3c(N4CCOCC4)nc(NCc4ccco4)nc32)cc1 [Ligand 34, N-[(furan-2-yl)methyl]-1-(4-methylphenyl)-4-(morpholin-4-yl)-1H-pyrazolo[3,4-d]pyrimidin-6-amine]	substantially affect the binding	not affected	significantly promoted the expression	significantly promoted the expression	significantly promoted the expression	significantly promoted the expression	significantly increased	significantly promoted the expression	no significant effect	no significant effect	upregulated
completely abrogated the interaction	O=C(Cn1cc(S(=O)(=O)c2ccccc2)c2ccccc21)N1CCc2ccccc21 [Ligand 80, 2-[3-(benzenesulfonyl)-1H-indol-1-yl]-1-(2,3-dihydro-1H-indol-1-yl)ethan-1-one]	only F361A significantly affect the binding of 80	not affected	but not 80, significantly promoted the expression	–	–	but not 80, significantly promoted the expression	no effect	but not 80, significantly promoted the expression	no significant effect	no significant effect	upregulated
